Starred links: 1 amine or outer side, 2 acyl side, 3 side chain; linkers in the order of their positions; H or OH if unused. Positions of bridges follow the written chain, without caps; N, C: chain ends. Non-standard residues stand in square brackets, D forms with d. Residues, ends and D or L forms follow the SMILES beside them. Chains are numbered I, II in the order given. Actinocin(9to1) = Cc1c2oc3c(C)ccc(C(=O)[*:1])c3nc-2c(C(=O)[*:2])c(N)c1=O; NMeV = CN[C@H](C(=O)O)C(C)C; Sar = CNCC(=O)O
Experiments:
NIH 3T3 cells [1] = assay: long-term growth inhibition assays (cytostatic and cytotoxic effects), cells carrying anti-khcs GSE vs control; assay type: cell-based, mouse; details: for resistance or sensitivity of GSE-carrying cells to the drug, long-term assay: four days in drug, then two or six days without drug, anti-khcs cells vs control; for sensitivity of anti-khcs GSE cells to the drug (surviving cells as percentage of growth without drug): 2x10^4 cells per dish, five days in drug, FIGS. 12A and 12B
Procedure: Cells were incubated with the drugs for 4 days, followed by 2 or […] in drug-free media, as indicated. Cell growth, presented in arbitrary units, was evaluated by methylene blue staining.
To further characterize the nature of drug resistance conferred by anti-khcs, the above-described short-term growth inhibition assays were followed by long-term growth inhibition assays which measured both the cytostatic and the cytotoxic effects of different drugs. These assays were carried out by incubating the cells for four days in the presence of the drugs, followed by either two or six days in the absence of the drug, to allow for programmed cell death, which is frequently associated with recovery from drug-induced inhibition (Kung et al., 1990, Cancer Res. 50: 7307-7317).
Thus, in the experiment shown in FIGS. 12A and 12B, NIH 3T3 cells carrying the anti-khcs GSE and control cells without the GSE were plated at a density of 2×10^4 per culture dish and grown for five days in concentrations of either colchicine or vinblastine. The cells were then fixed and stained, and the number of surviving cells determined and shown as a percentage of cell growth in the absence of drug.

NIH 3T3 cells [2] = assay: short-term (4-day) growth inhibition assay, methylene blue staining, cells carrying anti-khcs GSE vs insert-free vector control; assay type: cell-based, mouse; details: NIH 3T3 infected with anti-khcs virus vs insert-free vector; 4 days drug exposure
Procedure: Drug concentrations are given in ng/mL.
A 1:1 mixture of ecotropic and amphotropic packaging cells was transfected with retroviral vector pLNCX carrying the anti-khcs GSE using a standard calcium phosphate procedure. […] This virus-containing supernatant was used to infect NIH 3T3 cells, 10 times with 12 hour intervals. Control cells were infected in parallel with the insert-free vector virus obtained by the same procedure. […] DNA from the infected cells was analyzyed by Southern blot hybridization with a virus-specific probe.
The infected cell population described in Example 7 were analyzed for resistance to several anticancer drugs by a growth inhibition assay. For this assay, 10^4 cells per well were plated in 12-well plated and exposed to increasing concentrations of different drugs for 4 days. Relative cell numbers were measured by the methylene blue staining assay (Perry et al., 1992, Mutation Res. 286: 189-197). […] All of these drugs are known to induce DNA damage, albeit by different mechanism.

NIH 3T3 cells [3] = assay: dynamics of cell growth during and after drug treatment, anti-khcs GSE cells vs control; assay type: cell-based, mouse; details: for effect of the drug in continuous presence / cell death after removal of the drug: 250 ng/mL etoposide, 20 ng/mL camptothecin, 40 ng/mL colchicine; for effect of anti-khcs GSE on the growth-inhibitory effect of the drug: 5 or 11 days continuous exposure, anti-khcs cells vs control; for cell death after removal of the drug: control cells; for cell death after removal of the drug / effect of anti-khcs GSE on cell death after release from the drug: drug removed after 5 days; for overall change in drug resistance conferred by anti-khcs GSE, release vs continuous exposure: long-term, 11 days
Procedure: Cell growth was measured as described for FIGS. 12A and 12B. Cells were plated and one day later (indicated by the first arrow) the indicated drugs were added at concentrations as described. Four days later (indicated by the second arrow), the drugs were removed from some of the plates. Solid lines indicate cell growth in the continuous presence of the drug, and broken lines indicate cell growth after removal of the drug.
In these experiments (shown in FIGS. 13A through 13D), NIH 3T3 cells were treated with the corresponding drugs for 5 days, and then incubated for additional 6 days either in the presence or in the absence of the drug. […] After 11 days of drug exposure the total cell number in the etoposide- or camptothecin-treated populations of control cells was a little lower than after 5 days of drug exposure, but in the colchicine-treated control cell population a slow cell growth was still detectable. In the experiments where the drug was removed after 5 days, cell growth was initially activated for all three drugs.
The expression of the anti-khcs GSE had different effects on the growth inhibition and recovery-associated cell death induced by these drugs.

NIH 3T3 cells [4] = assay: growth parameters of multiply-infected cells; assay type: cell-based, mouse; details: multiple integrated provirus copies; normalised after several passages
Description: A 1:1 mixture of ecotropic and amphotropic packaging cells was transfected with retroviral vector pLNCX carrying the anti-khcs GSE using a standard calcium phosphate procedure. Two weeks later, the virus titer, as measured by the formation of G418- resistance NIH 3T3 colonies, reached >10^6 infectious units per mL as a result of “ping-pong” infection (see Bodine et al., 1990, Proc. Natl. Acad. Sci. USA 87: 3738-3742). This virus-containing supernatant was used to infect NIH 3T3 cells, 10 times with 12 hour intervals. Control cells were infected in parallel with the insert-free vector virus obtained by the same procedure. […] DNA from the infected cells was analyzyed by Southern blot hybridization with a virus-specific probe.
At this stage, the cells were frozen and used for the experiments described below.

NIH 3T3 cells [5] = assay: etoposide resistance with GSE under IPTG-inducible promoter; assay type: cell-based, mouse; details: 5 mM IPTG; IPTG-dependent; vs insert-free vector
Description: The components of this system include an enhancer-dependent promoter, combined in cis with multiple repeats of the bacterial lac operator, and a gene expressing LAP265, an artificial regulatory protein derived from the lac repressor and a mammalian transcriptional activator. The anti-khcs GSE was cloned into the plasmid pX6.CLN, which contains the inducible promoter used by Baim et al., supra (a gift of Dr. T. Shenk) which expresses the inserts from an enhancerless SV40 early gene promoter supplemented with 21 repeats of the lac operator sequence. The resulting plasmid, which contains no selectable markers, was co-transfected into NIH 3T3 cells together with the LNCX plasmid carrying the neo gene.

[6] = test system: primary mouse embryo fibroblasts (MEF); assay: life span / immortalization of senescent primary fibroblasts after infection with GSE virus; assay type: cell-based
Procedure: The virus carrying the anti-khcs GSE was treated for the ability to increase the life span of primary mouse embryo fibroblasts (MEF). MEF were prepared from 10 day old mouse embryos by a standard trypsinization procedure and senescent cells were frozen at different passages prior to crisis. Senescent MEF, two weeks before crisis, were infected with recombinant retroviruses carrying LNCX vector either without an insert or with anti-khcs.

NIH 3T3 cells [7] = assay: etoposide selection after retroviral transduction of GSEs; assay type: cell-based, mouse; details: recloned proviral inserts in LNCX vector
Procedure: This selection was carried out directly on virus-producing packaging cells, in the expectation that cells whose resistant phenotype is caused by the GSE expression will produce virus particles carrying such a GSE. The mixture of amphotropic and ecotropic packaging cells was transfected with the cDNA library in the LNCX vector, prepared according to Example 1, and the virus was allowed to spread through the population for 9 days.
The proviral inserts contained in the etoposide-selected NIH 3T3 cells were analyzed by PCR. […] Individual PCR-amplified fragments were recloned into the LNCX vector in the same position and orientation as in the original plasmid, as illustrated in FIG. 4C. […] These GSEs wee named anti-khcs, VPA and VP9-11.

[8] = test system: primary human fibroblasts; assay: life span of primary human skin fibroblasts after infection with GSE virus; assay type: cell-based
Procedure: Primary human fibroblasts, derived from human skin, were obtained from the Aging Cell Repository of the National Institutes of Aging. The cells were grown in DMEM with 20% fetal calf serum supplemented with twice the concentration of amino acids and vitamins normally used to supplement normal human skin fibroblast growth in culture. Cells at the fifth passage were infected with either the control pLNCX virus or the virus carrying mouse anti-khcs GSE (produced as described above in Example 3).

COc1cccc2c1C(=O)c1c(O)c3c(c(O)c1C2=O)C[C@@](O)(C(=O)CO)C[C@@H]3O[C@H]1C[C@H](N)[C@H](O)[C@H](C)O1 [Adriamycin, doxorubicin]
resistance or sensitivity of GSE-carrying cells to the drug, long-term assay (NIH 3T3 cells [1]): resistant

Cc1c2oc3c(C)ccc(C(=O)N[C@@H]4C(=O)N[C@H](C(C)C)C(=O)N5CCC[C@H]5C(=O)N(C)CC(=O)N(C)[C@@H](C(C)C)C(=O)O[C@@H]4C)c3nc-2c(C(=O)N[C@@H]2C(=O)N[C@H](C(C)C)C(=O)N3CCC[C@H]3C(=O)N(C)CC(=O)N(C)[C@@H](C(C)C)C(=O)O[C@@H]2C)c(N)c1=O [actinomycin D] (I: T[dV]P[Sar][NMeV] / II: T[dV]P[Sar][NMeV]; ester I:1-I:C, II:1-II:C; linker I:N-II:N via Actinocin(9to1))
change in resistance to the cytostatic effects of the drug induced by anti-khcs GSE (NIH 3T3 cells [2]): no increase in resistance was observed

CC[C@@]1(O)C(=O)OCc2c1cc1n(c2=O)Cc2cc3ccccc3nc2-1 [camptothecin]
effect of the drug in continuous presence (NIH 3T3 cells [3]): growth inhibition but little detectable cell death
effect of anti-khcs GSE on the growth-inhibitory effect of the drug (NIH 3T3 cells [3]): small decrease of the growth-inhibitory effect
cell death after removal of the drug (NIH 3T3 cells [3]): extensive cell death
effect of anti-khcs GSE on cell death after release from the drug (NIH 3T3 cells [3]): slight increase in cell death
overall change in drug resistance conferred by anti-khcs GSE, release vs continuous exposure (NIH 3T3 cells [3]): no significant long-term difference

COc1cc2c(c(OC)c1OC)-c1ccc(OC)c(=O)cc1[C@@H](NC(C)=O)CC2 [colchicine]
sensitivity of anti-khcs GSE cells to the drug (surviving cells as percentage of growth without drug) (NIH 3T3 cells [1]): hypersensitivity
resistance or sensitivity of GSE-carrying cells to the drug, long-term assay (NIH 3T3 cells [1]): hypersensitive
change in resistance to the cytostatic effects of the drug induced by anti-khcs GSE (NIH 3T3 cells [2]): no increase in resistance was observed
effect of the drug in continuous presence (NIH 3T3 cells [3]): growth inhibition but little detectable cell death
effect of anti-khcs GSE on the growth-inhibitory effect of the drug (NIH 3T3 cells [3]): more susceptible to the growth-inhibitory effect
cell death after removal of the drug (NIH 3T3 cells [3]): only limited cell death

COc1cc([C@@H]2c3cc4c(cc3[C@@H](O[C@@H]3O[C@@H]5CO[C@@H](C)O[C@H]5[C@H](O)[C@H]3O)[C@H]3COC(=O)[C@H]23)OCO4)cc(OC)c1O [etoposide]
resistance or sensitivity of GSE-carrying cells to the drug, long-term assay (NIH 3T3 cells [1]): resistant
effect of the drug in continuous presence (NIH 3T3 cells [3]): growth inhibition but little detectable cell death
effect of anti-khcs GSE on the growth-inhibitory effect of the drug (NIH 3T3 cells [3]): decreased the growth-inhibitory effect of the drug to the same, relatively small extent
cell death after removal of the drug (NIH 3T3 cells [3]): extensive cell death
effect of anti-khcs GSE on cell death after release from the drug (NIH 3T3 cells [3]): decreased the amount of cell death
overall change in drug resistance conferred by anti-khcs GSE, release vs continuous exposure (NIH 3T3 cells [3]): much more pronounced after release from the drug

CC[C@]1(O)C[C@@H]2CN(CCc3c([nH]c4ccccc34)[C@@](C(=O)OC)(c3cc4c(cc3OC)N(C)[C@H]3[C@@](O)(C(=O)OC)[C@H](OC(C)=O)[C@]5(CC)C=CCN6CC[C@]43[C@@H]65)C2)C1 [vinblastine]
sensitivity of anti-khcs GSE cells to the drug (surviving cells as percentage of growth without drug) (NIH 3T3 cells [1]): hypersensitivity
resistance or sensitivity of GSE-carrying cells to the drug, long-term assay (NIH 3T3 cells [1]): hypersensitive

B1: anti-khcs: genetic suppressor element encoding antisense RNA for mouse kinesin heavy chain gene khcs (SEQ.ID.No.:3), in LNCX retroviral vector (nucleic acid)
antisense: CTTGATCCCTTCTGGTTGATGCCAGAAGCTCTTCCTGATCCAGCATTTGTATCTTCAATTTCTCTACCAATTGGCTTTGTTGGTTAATCTCTTCATCCTTGTCATCAAGTTGTTTATACAATTTAGCAAGTTCTTCTTCACACTTTCTTCTTTCAGCATCGGTAAAACTACCAGCCATTCCGACTGCAGCAGCTGGTTTATCACTGGTAATAGCAATATCTTTATCCGCTGTGAAGGCTTCCAAATTAGCTTTCTCTTTGTCAAACTGCTCATCAATAGGCACTGTCTCCCCGTTACGCCAACGGTTTAGCTCGTTTTCCAGCCACT
modifications: in LNCX retroviral vector
growth rate and plating efficiency of freshly-obtained multiply-infected cells (NIH 3T3 cells [4]): decreased growth rate and plating efficiency
etoposide resistance of transfectants (NIH 3T3 cells [5]): clearly increased etoposide resistance
features of neoplastic transformation in post-crisis cells ([6]; microscopic): no microscopically visible features of neoplastic transformation
proportion of cells surviving the crisis ([6]; relative to uninfected MEF or control LNCX virus, two weeks after crisis): great increase
ability to confer etoposide resistance after retroviral transduction (NIH 3T3 cells [7]): induce etoposide resistance
additional passages survived ([8]; after control cells went into crisis): at least five
growth when control cells went into crisis ([8]; infected at fifth passage, four passages later): continued to grow
